Results published in PMC12951562, “SH2scan: Mapping SH2 Domain-Ligand Binding Selectivity for Inhibitors and Degraders” (Journal of Medicinal Chemistry, 2026).
Like-named read-outs stand apart in the source and are kept apart here. Non-standard residues stand in square brackets, D forms with d. Residues, ends and D or L forms follow the SMILES beside them. *: point of attachment. pY = N[C@@H](Cc1ccc(OP(=O)(O)O)cc1)C(=O)O; Caffeoyl = O=C(/C=C/c1ccc(O)c(O)c1)*

Assays:
Experiment in all cases: biochemical
Assay type in all cases: binding
CISH = target: T1, CISH (Homo sapiens, UniProt Q9NSE2); conditions: for remaining activity at 10 µM: read-out: percent of DMSO vehicle control
T1 construct: the DNA-tagged SH2 domain concentrations used in this study were <0.1 nM; made in house; host or cells: HEK293 (transient transfection; unpurified extract)
T1 sequence (Q9NSE2 82-163 limits assumed): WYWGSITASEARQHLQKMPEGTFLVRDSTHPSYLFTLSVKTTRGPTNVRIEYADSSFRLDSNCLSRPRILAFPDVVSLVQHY

PTPN11(SH2dom.C-term.) = target: T2, PTPN11(SH2dom.C-term.) (Homo sapiens, UniProt Q06124); conditions: primary screen, 10 μM
T2 construct: SH2dom.C-term. denotes SH2 domain closest to C-terminus of protein; made in house; host or cells: HEK293 (transient transfection, unpurified extract)
T2 sequence (Q06124 112-216 limits assumed): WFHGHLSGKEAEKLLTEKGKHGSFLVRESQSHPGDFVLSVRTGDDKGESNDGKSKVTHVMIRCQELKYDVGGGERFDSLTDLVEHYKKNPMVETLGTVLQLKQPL

SH2D1A = target: T3, SH2D1A (Homo sapiens, UniProt O60880); conditions: for remaining activity at 10 µM: read-out: percent of DMSO vehicle control
T3 construct: made in house; host or cells: HEK293 (transient transfection), unpurified extract
T3 sequence (O60880 1-128): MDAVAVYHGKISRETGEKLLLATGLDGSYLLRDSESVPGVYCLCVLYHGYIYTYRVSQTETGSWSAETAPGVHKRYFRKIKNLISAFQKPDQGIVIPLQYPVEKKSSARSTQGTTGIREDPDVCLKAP

SHIP2 = target: T4, SHIP2 (Homo sapiens, UniProt O15357); conditions: for remaining activity at 10 µM: read-out: percent of DMSO vehicle control
T4 construct: made in house; host or cells: HEK293 (transient transfection), unpurified extract
T4 sequence (O15357 1-1258): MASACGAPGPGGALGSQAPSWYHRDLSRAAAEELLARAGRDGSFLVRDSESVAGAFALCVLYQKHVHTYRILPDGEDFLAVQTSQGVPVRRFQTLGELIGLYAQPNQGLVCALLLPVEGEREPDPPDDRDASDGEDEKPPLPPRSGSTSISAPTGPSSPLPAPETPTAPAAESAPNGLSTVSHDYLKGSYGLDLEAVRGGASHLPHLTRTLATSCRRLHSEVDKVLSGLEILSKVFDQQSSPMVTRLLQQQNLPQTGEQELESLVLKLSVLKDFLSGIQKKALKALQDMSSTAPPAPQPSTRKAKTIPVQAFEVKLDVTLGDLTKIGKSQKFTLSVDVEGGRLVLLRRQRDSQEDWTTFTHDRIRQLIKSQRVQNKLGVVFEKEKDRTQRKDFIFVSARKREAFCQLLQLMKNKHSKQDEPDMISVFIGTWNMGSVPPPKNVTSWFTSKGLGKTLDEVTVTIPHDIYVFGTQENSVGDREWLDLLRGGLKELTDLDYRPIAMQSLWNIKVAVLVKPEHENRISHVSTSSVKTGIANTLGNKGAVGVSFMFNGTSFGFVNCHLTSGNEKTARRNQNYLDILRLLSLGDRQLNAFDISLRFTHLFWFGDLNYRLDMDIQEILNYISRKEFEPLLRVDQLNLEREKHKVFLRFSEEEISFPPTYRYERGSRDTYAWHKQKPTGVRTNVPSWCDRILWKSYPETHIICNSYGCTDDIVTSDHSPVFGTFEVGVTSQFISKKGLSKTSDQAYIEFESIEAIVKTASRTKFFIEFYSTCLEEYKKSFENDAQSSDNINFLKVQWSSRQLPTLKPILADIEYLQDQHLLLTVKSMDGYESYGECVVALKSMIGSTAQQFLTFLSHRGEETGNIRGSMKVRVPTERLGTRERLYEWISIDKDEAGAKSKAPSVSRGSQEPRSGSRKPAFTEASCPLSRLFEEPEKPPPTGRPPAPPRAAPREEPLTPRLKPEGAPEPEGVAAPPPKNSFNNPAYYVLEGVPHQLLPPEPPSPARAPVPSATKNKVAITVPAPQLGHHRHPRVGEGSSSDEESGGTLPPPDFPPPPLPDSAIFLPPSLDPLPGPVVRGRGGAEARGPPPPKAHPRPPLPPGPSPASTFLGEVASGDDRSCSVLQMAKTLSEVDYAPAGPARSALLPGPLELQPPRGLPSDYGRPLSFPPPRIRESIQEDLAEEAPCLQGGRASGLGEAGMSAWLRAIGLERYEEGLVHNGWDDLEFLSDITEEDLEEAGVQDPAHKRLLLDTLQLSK

[1] = target: T5, STAT3(E616del)-nonphosphorylated (Homo sapiens, UniProt P40763, DEL616-616)
T5 construct: made in house; host or cells: HEK293 (transient transfection), unpurified extract, dephosphorylated by endogenous phosphatases

[2] = target: T6, STAT3(N647I)-nonphosphorylated (Homo sapiens, UniProt P40763, N647I)
T6 construct: made in house; host or cells: HEK293 (transient transfection), unpurified extract, dephosphorylated by endogenous phosphatases

[3] = target: T7, STAT3(Y640F)-nonphosphorylated (Homo sapiens, UniProt P40763, Y640F)
T7 construct: made in house; host or cells: HEK293 (transient transfection), unpurified extract, dephosphorylated by endogenous phosphatases

STAT5B = target: T8, STAT5B (Homo sapiens, UniProt P51692)
T8 construct: made in house; host or cells: HEK293 (transient transfection), unpurified extract
T8 sequence (P51692 1-787): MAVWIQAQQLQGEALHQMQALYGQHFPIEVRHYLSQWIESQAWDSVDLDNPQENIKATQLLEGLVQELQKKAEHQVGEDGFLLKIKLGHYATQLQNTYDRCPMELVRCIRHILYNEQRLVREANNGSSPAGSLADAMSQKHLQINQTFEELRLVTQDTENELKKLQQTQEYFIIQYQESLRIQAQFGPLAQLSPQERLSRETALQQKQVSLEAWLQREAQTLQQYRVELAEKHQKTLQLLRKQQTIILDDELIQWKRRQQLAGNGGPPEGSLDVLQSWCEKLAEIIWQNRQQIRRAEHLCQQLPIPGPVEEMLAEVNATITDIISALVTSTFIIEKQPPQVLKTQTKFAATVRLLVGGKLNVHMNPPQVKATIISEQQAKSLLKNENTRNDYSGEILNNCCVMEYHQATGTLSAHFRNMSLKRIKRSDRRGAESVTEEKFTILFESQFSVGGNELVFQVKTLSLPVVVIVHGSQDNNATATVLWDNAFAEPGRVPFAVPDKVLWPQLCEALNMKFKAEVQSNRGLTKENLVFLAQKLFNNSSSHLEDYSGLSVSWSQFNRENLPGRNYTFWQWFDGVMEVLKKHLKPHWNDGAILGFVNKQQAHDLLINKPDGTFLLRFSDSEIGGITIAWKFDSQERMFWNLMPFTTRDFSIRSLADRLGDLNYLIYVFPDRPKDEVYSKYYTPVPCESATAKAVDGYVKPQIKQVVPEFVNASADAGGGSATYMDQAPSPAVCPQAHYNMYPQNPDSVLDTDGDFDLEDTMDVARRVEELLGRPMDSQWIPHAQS

[4] = read-out: percent of DMSO vehicle control
[5] = primary screen, 10 μM, read-out: percent of DMSO vehicle control

Question: Which results are given for CC[C@H](C)[C@H](NC(=O)[C@H](CCC(=O)O)NC(=O)[C@H](CCC(=O)O)NC(=O)[C@H](Cc1ccc(OP(=O)(O)O)cc1)NC(C)=O)C(=O)N[C@@H](CCC(=O)O)C(N)=O [Ac-pYEEIE-NH2] (Ac-[pY]EEIE-NH2)?
Answer: percent of DMSO vehicle control (CISH; primary screen, 10 μM): 131.9%; percent of DMSO vehicle control (PTPN11(SH2dom.C-term.)): 133.6%; percent of DMSO vehicle control (SH2D1A; primary screen, 10 μM): 93.4%; percent of DMSO vehicle control (SHIP2; primary screen, 10 μM): 62.5±0.8%; percent of DMSO vehicle control ([1]; primary screen, 10 μM): 86.7±0.4%; percent of DMSO vehicle control ([2]; primary screen, 10 μM): 97.9±8.6%; percent of DMSO vehicle control ([3]; primary screen, 10 μM): 156.0%; percent of DMSO vehicle control (STAT5B; primary screen, 10 μM): 21.8±4.7%

Question: With CC(=O)N[C@@H](Cc1ccc(CP(=O)(O)O)cc1)C(=O)NC1(C(=O)N[C@@H](CC(N)=O)C(=O)NCCCc2c(O)ccc3ccccc23)CCCCC1 [CGP78850] as the molecule, how does the remaining activity at 10 µM (CISH) read?
Answer: Its remaining activity at 10 µM is 117 ± 15.1%.

Question: And the “percent of DMSO vehicle control” value (PTPN11(SH2dom.C-term.))?
Answer: The value was 127.5±18.4%.

Question: What about the remaining activity at 10 µM (SH2D1A) of the same molecule?
Answer: The remaining activity at 10 µM was 63.8 ± 17.1%.

Question: And the remaining activity at 10 µM (SHIP2)?
Answer: The remaining activity at 10 µM was 106 ± 9.3%.

Question: What about the percent of DMSO vehicle control at 10 µM [1, 4] of the same molecule?
Answer: Its percent of DMSO vehicle control at 10 µM is 71.8 ± 6.4%.

Question: What about the percent of DMSO vehicle control at 10 µM [2, 4] of the same molecule?
Answer: The percent of DMSO vehicle control at 10 µM was 80.6 ± 2.9%.

Question: What about the percent of DMSO vehicle control at 10 µM [3, 4] of the same molecule?
Answer: The percent of DMSO vehicle control at 10 µM was 118 ± 3.3%.

Question: And the percent of DMSO vehicle control at 10 µM (STAT5B; [4])?
Answer: The percent of DMSO vehicle control at 10 µM was 89.6 ± 6.1%.

Question: With CC[C@H](C)[C@H](NC(=O)[C@H](CCC(=O)O)NC(=O)[C@H](CCC(=O)O)NC(=O)[C@H](Cc1ccc(OP(=O)(O)O)cc1)NC(=O)/C=C/c1ccc(O)c(O)c1)C(=O)N[C@@H](CCC(=O)O)C(=O)O [Caffeic acid-pYEEIE] (Caffeoyl-[pY]EEIE-OH) as the molecule, how does the Kd (CISH) read?
Answer: The Kd was 430 ± 980 nM.

Question: And the remaining activity at 10 µM (CISH)?
Answer: The remaining activity at 10 µM was 4.9 ± 6.9%.

Question: And the “percent of DMSO vehicle control” value (PTPN11(SH2dom.C-term.))?
Answer: The value was 72.6±1.1%.

Question: And the remaining activity at 10 µM (SH2D1A)?
Answer: The remaining activity at 10 µM was 79.8 ± 21.3%.

Question: And the Kd (SHIP2)?
Answer: Its Kd is 230 ± 120 nM.

Question: And the remaining activity at 10 µM (SHIP2)?
Answer: Its remaining activity at 10 µM is 0.2%.

Question: And the percent of DMSO vehicle control at 10 µM [1, 4]?
Answer: The percent of DMSO vehicle control at 10 µM was 85.5 ± 0.3%.

Question: What about the percent of DMSO vehicle control at 10 µM [2, 4] of the same molecule?
Answer: Its percent of DMSO vehicle control at 10 µM is 85.3 ± 2.1%.

Question: And the percent of DMSO vehicle control at 10 µM [3, 4]?
Answer: The percent of DMSO vehicle control at 10 µM was 131 ± 28.4%.

Question: And the Kd (STAT5B)?
Answer: The Kd was 4200 ± 2800 nM.

Question: What about the percent of DMSO vehicle control at 10 µM (STAT5B; [4]) of the same molecule?
Answer: The percent of DMSO vehicle control at 10 µM was 19.3 ± 2.8%.

Question: For O=C(CCl)Nc1cccc(CNC(=O)[C@H](Cc2ccc(OP(=O)(O)O)cc2)NC(=O)Cc2ccc(F)cc2)c1 [MN551], which Kd (CISH; dose-response, read-out: KD) is on record?
Answer: Its Kd is 46 nM.

Question: And the remaining activity at 10 µM (CISH; primary screen, 10 μM)?
Answer: The remaining activity at 10 µM was 3.2 ± 4.3%.

Question: And the “percent of DMSO vehicle control” value (PTPN11(SH2dom.C-term.))?
Answer: The value was 125.6%.

Question: What about the remaining activity at 10 µM (SH2D1A; primary screen, 10 μM) of the same molecule?
Answer: The remaining activity at 10 µM was 77.9 ± 2.2%.

Question: What about the KD (SHIP2; dose-response) of the same molecule?
Answer: The KD was “No Hit”.

Question: And the remaining activity at 10 µM (SHIP2; primary screen, 10 μM)?
Answer: The remaining activity at 10 µM was 31.7%.

Question: And the remaining activity at 10 µM [1, 5]?
Answer: The remaining activity at 10 µM was 203%.

Question: What about the remaining activity at 10 µM [2, 5] of the same molecule?
Answer: Its remaining activity at 10 µM is 81.2%.

Question: And the remaining activity at 10 µM [3, 5]?
Answer: The remaining activity at 10 µM was 49 ± 5.7%.

Question: What about the remaining activity at 10 µM (STAT5B; [5]) of the same molecule?
Answer: Its remaining activity at 10 µM is 49.1 ± 7.6%.
